# Several values for one entry are separate records, joined by “and”; a condition that tells them apart may be missing. Equal entries are not always repeated.
# How the values were obtained:
# [1] = target: AAG; settings: cited from earlier work
# [2] = daily oral 150 mg/d in patients with cancer; cited from earlier work
# [3] = target: HSA (Homo sapiens, UniProt P02768); test: Equilibrium dialysis; format: binding
# [4] = Clinical plasma pharmacokinetics in patients with advanced breast cancer; format: in vivo, human; settings: for Tmax: po, 20 mg
# [5] = tested on: NOTCH1; test: In vitro Notch cellular assay; format: cell-based, human
# [6] = tested on: plasma proteins
# [7] = tested on: plasma proteins; remark: listed apart in the source
# [8] = in vitro; settings: human, human plasma, pH 7.2
# [9] = target: human α1-acid glycoprotein (AAG) (Homo sapiens, UniProt P02763); test: Equilibrium dialysis, binding in isolated AAG solution; settings: for mean Fu: total drug 500 ng/mL (1,065 nmol/L); for RO4929097 fraction unbound estimated from Equation (A): nK 1.0 × 10^6 L/mol; for maximum binding concentration (nP) of AAG: estimate ± SE
# human α1-acid glycoprotein (AAG), sequence (P02763 19-201): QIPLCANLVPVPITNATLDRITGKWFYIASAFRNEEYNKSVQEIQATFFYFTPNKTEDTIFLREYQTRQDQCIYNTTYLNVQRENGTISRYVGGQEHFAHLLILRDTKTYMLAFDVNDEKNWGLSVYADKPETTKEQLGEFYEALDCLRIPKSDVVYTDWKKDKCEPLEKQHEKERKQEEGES
# [10] = given alone, 20 mg orally, median (interquartile range), n = 8
# [11] = single oral dose of 20 mg in 8 patients
# [12] = Homo sapiens, U2OS, 24 h, read-out: inhibition of cellular Notch activity
# HSA, sequence (P02768 25-609): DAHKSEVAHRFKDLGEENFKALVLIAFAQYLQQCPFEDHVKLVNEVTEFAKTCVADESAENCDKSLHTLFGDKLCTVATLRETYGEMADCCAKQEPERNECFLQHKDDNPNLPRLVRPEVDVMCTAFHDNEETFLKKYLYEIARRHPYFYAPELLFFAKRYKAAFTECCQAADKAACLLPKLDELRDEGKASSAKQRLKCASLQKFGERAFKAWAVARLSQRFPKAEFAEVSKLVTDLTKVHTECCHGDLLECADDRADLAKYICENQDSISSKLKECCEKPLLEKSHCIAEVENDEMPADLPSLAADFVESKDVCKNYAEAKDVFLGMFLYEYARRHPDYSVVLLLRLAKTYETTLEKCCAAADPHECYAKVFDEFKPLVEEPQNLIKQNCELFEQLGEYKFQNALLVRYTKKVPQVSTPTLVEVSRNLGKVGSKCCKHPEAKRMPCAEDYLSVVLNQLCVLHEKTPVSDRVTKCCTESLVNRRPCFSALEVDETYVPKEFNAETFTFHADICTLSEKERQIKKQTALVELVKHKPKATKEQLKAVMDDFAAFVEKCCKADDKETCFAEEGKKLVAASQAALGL
smiles,measurement,setting,value
CS(=O)(=O)c1ccc(C(=O)Nc2ccc(Cl)c(-c3ccccn3)c2)c(Cl)c1 [GDC-0449],Kd,"[1]; read-out: Kd for AAG, in vitro equilibrium dialysis",1500 nM
same,average steady-state plasma concentration of total GDC-0449,[2],approximately 25 μmol/L
same,unbound drug levels as % of the total drug,[2],less than 1%
"CC(C)(C(=O)NCC(F)(F)C(F)(F)F)C(=O)N[C@@H]1C(=O)Nc2ccccc2-c2ccccc21 [RO4929097, RO4929097 (γ-secretase inhibitor)]",Kd,[3],90900 nM
CC(C)(C(=O)NCC(F)(F)C(F)(F)F)C(=O)N[C@@H]1C(=O)Nc2ccccc2-c2ccccc21 [RO4929097],Decrease in average systemic exposure to total RO4929097,[4]; co-administered with GDC-0449,8.3 fold
same,Decrease in average unbound RO4929097 exposure,[4]; co-administered with GDC-0449,1.7 fold
same,Unbound RO4929097 AUC0–24h,[4]; [10],52.8 (33.2–64.9) nmol/L h
same,Unbound RO4929097 Cmax,[4]; [10],4.3 (2.7–5.6) nmol/L
same,AUC(0-t),"[4]; human, plasma, oral, Total RO4929097 AUC0–24h, in combination with GDC-0449 150 mg orally, median (interquartile range), n = 8",0.723 µM·h
same,Tmax,"[4]; human, plasma, Total RO4929097 Tmax, given alone, 20 mg orally, median (interquartile range), n = 8",2.5 h
same,Tmax,"[4]; human, plasma, Unbound RO4929097 Tmax, given alone, 20 mg orally, median (interquartile range), n = 8",1.5 h
same,Interindividual variability of total RO4929097 AUC0-24h (max/min),[4]; single oral dose of 20 mg,16 fold and up to 16 fold
same,Interindividual variability of total RO4929097 Cmax (max/min),[4]; single oral dose of 20 mg,15 fold
same,Interindividual variability of unbound RO4929097 AUC0-24h (max/min),[4]; single oral dose of 20 mg,4 fold
same,Interindividual variability of unbound RO4929097 Cmax (max/min),[4]; single oral dose of 20 mg,3 fold
same,"Unbound RO4929097 AUC0-24h, range among patients",[4]; single oral dose of 20 mg,0.0281 to 0.113 µM·h
same,"Unbound RO4929097 Cmax, range among patients",[4]; single oral dose of 20 mg,1.9 to 6.1 nM
same,"Coefficient variation of AUC0-24h, total RO4929097",[4]; [11],99%
same,"Coefficient variation of AUC0-24h, unbound RO4929097",[4]; [11],49%
same,RO4929097 Notch-inhibitory activity in presence of AAG,"[5]; AAG 0.5, 1.4, […], total RO4929097 500 and 5,000 nmol/L",significantly reduced
same,inhibition at 0.05 µM,[5]; [12],2.1%
same,inhibition at 0.5 µM,[5]; [12],62%
same,inhibition at 5 µM,[5]; [12],73%
same,IC50,"[5]; Homo sapiens, U2OS, read-out: unbound RO4929097 concentration for 50% inhibition of the maximum Notch activity (IC50)",109 nM
same,bound in human plasma,[6],> 97%
same,intraindividual variability in RO4929097 fraction unbound,[7]; during the treatment in individual patient,up to 5 fold
same,interindividual variability in RO4929097 fraction unbound,"[7]; patients, alone or in combination with GDC-0449",up to 10 fold
same,fraction unbound at 24 h,[8],0.047
same,mean Fu,[9]; AAG 0.2 mg/mL,19.0%
same,RO4929097 fraction unbound estimated from Equation (A),[9]; AAG 0.5 mg/mL,8%
same,maximum binding concentration (nP) of AAG,"[9]; AAG 1.4 mg/mL, Equation (C), GDC-0449 0 μmol/L",23.1 µmol/L and 23.1 ± 0.9 µmol/L
same,maximum binding concentration (nP) of AAG,"[9]; AAG 1.4 mg/mL, GDC-0449 5 μmol/L",25.3 ± 1.1 µmol/L
same,maximum binding concentration (nP) of AAG,"[9]; AAG 1.4 mg/mL, GDC-0449 25 μmol/L",34.9 ± 2.0 µmol/L
same,RO4929097 fraction unbound estimated from Equation (A),[9]; AAG 1.4 mg/mL,3%
same,mean Fu,[9]; AAG […],1.1%
same,total binding constant (nK) for AAG,"[9]; Equation (A), Fu versus protein concentration, nonlinear regression",1e+06 L/mol and 1.1e+06 L/mol
Cc1ccc(NC(=O)c2ccc(CN3CCN(C)CC3)cc2)cc1Nc1nccc(-c2cccnc2)n1 [imatinib],binding affinity for AAG (Ka),[1],1.7e+06 L/mol
